The record followed here is article PMC5411961, “One amino acid makes a difference–Characterization of a new TPMT allele and the influence of SAM on TPMT stability” (Scientific Reports, 2017).

The target in the assay is T1, TPMTwt (Homo sapiens, UniProt P51580).
T1 construct: gene TPMT; recombinant, pET-28a, E. coli BL21(DE3) CodonPlus, His-tag cleaved off with thrombin, Ni-NTA and gel filtration
T1 sequence (P51580 1-245): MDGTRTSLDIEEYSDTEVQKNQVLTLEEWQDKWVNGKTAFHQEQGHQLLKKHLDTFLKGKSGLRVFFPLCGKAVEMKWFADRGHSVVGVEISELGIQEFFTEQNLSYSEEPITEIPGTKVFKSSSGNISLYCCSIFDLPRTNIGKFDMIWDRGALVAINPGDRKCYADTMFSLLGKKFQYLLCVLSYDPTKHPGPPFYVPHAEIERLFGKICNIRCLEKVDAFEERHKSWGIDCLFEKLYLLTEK
As to the kind of experiment: isothermal titration calorimetry. Format: binding. On the technique in general: ITC needs no label: the signal is the heat of the interaction.

`C[S+](CC[C@H](N)C(=O)O)C[C@H]1O[C@@H](n2cnc3c(N)ncnc32)[C@H](O)[C@@H]1O` (stereo partly shown) [SAM] came in with a Kd of 2700 nM.

The term Kd denotes a measure of binding affinity in units of concentration. Lower therefore signals tighter binding.
